From patent US9290555B2, “Reagents and methods for treating dental disease” (University of Washington Through its Center for …, priority 2011, dated 2016)
Entries after “also recorded” stand apart in the source; their conditions may differ.

Key:
[1] = Microstructural and crystallographic analysis of the synthesized minerals (SEM, TEM, XRD); details: for mineral morphology: SEM/TEM of minerals formed in solution with peptide; for crystal phase of the mineral formed (XRD): XRD of minerals formed in solution; for amount of radiating crystalline blade-like particles emanating from the spherulites: compared to weak binders and no peptide control
Experimental: (§1) For the mineralization experiments, mineralization solutions containing 24 mM Ca^2+ and 14.4 mM β-GP and 0.4 mM peptide was prepared in 25 mM Tris-HCl buffer (pH 7.4). A mineralization solution containing no peptide was prepared as the negative control. Mineralization reactions were commenced by adding bacterial AP to the solution at a final concentration of 1.4×10^−6 g/mL. Subsequent mineral formation kinetics was monitored by continuous measuring of absorbance at 820 nm wave length using a Tecan Safire microplate reader (Tecan Trading AG, Switzerland) as well as by periodic assays of calcium ions throughout the reaction. For periodic assays of calcium and phosphate, 10 μL of the reaction solution was collected at 0.25-, 0.5-, 1- and 1.5-hr. The calcium concentration in the solutions was determined using QuantiChrome Calcium Assay Kit (Bioassays, U.S.A.). All mineralization reactions were carried out at 37° C. Samples for electron microscopy analysis were prepared by placing a 10 μL aliquot from the reaction solution onto a carbon coated TEM grid. After 1 min, liquid on the TEM grid was carefully wicked away and the grids were vacuum-dried for 5 min. The dried grids were stored in a desiccated container until analyzed. SEM imaging was performed at 10 kV using a JSM 7000F (JEOL, Japan) SEM in secondary electron imaging mode. TEM imaging and electron diffraction analysis were performed using an EMS 420T TEM (FEI, Inc., USA; formerly Philips, The Netherlands) operated at 120 kV.

Binding analysis via QCM = details: for Kd: binding to HAp, read-out: KD (dissociation constant); for binding affinity to HAp (in words): compared with ADP1, ADP2, ADP4, ADP7
Experimental: Calcium phosphate coated QCM electrodes were purchased commercially. (Q-Sense, Sweden) The diameter of the crystals and electrodes were 8.8 mm and 5.0 mm, respectively. […] A 12 V DC current was applied to the oscillator circuit to drive the crystal, and the frequency was measured with a Hewlett-Packard 53131A frequency counter sampling at 225 Hz (Universal Counter, Agilent Technologies). After the crystal was mounted in the cell, they were cleaned and dried with high-purity nitrogen gas and used immediately. To establish a stable baseline, a sufficient amount of buffer solution was introduced into the cell before adding the peptide. The frequency change of the crystal in pure buffer solution was recorded for 30 to 60 minutes. After this, the desired amount of ADPs was introduced into the cell and the frequency change was recorded continuously.
The dissociation constants (KD) of the peptides were determined. The KD is an equilibrium constant that represents the concentration necessary to achieve 50% surface coverage. […] (FIG. 2a, Table 1)

[2] = In vitro solution biomineralization, alkaline phosphatase based mineralization model; assay type: biochemical; details: for mineralization trend (kinetics): 0.4 mM peptide, 24 mM Ca2+, 14.4 mM β-GP, 37° C., initial 90 minutes; for available free Ca2+ consumed: at the end of the 90 minutes
Experimental: An alkaline phosphatase (AP) based mineralization model was used as described before to investigate the mineralization behaviors of the peptides (22) (see Supporting Information for details). […]
as §1

[3] = Ex vivo re-mineralization of tooth root; set-up: species or system human
Experimental: The cementum-root stock blocks were prepared from single rooted, extracted adult teeth collected at the University of Washington Dental School clinics. No individual identifiers were used and the use of such material complied with the Institutional Review Board guidelines. The teeth were kept in 70% ethanol solution at 4° C. until the specimens were prepared. Cylindrical blocks of 4 mm diameter were cut from the acellular cementum, close to the cementoenamel junction using a trephine bur. The teeth were kept immersed in 70% ethanol-phosphate buffered saline (PBS) during the cutting to prevent heat damage due to friction. The cut cylindrical blocks were cleaned of contaminating material using PBS and demineralized with 35% phosphoric acid gel for 10 seconds. The specimens were stored in 70% ethanol-PBS solution at 4° C. until used.
Prior to coating the specimens with the peptide, the previously cut cylindrical blocks were rehydrated and equilibrated for 2 hours in 24 mM Tris-HCl buffer, pH 7.4. The lyophilized ADP was dissolved in 24 mM Tris-HCl buffer, pH 7.4 to a final concentration of 0.4 mM. A 50 μl drop of the ADP solution was dropped on top of the specimens and left on the specimen for 10 minutes at room temperature in a water saturated chamber to prevent evaporation. Control specimens were identically prepared only by dropping 50 μl of buffer alone. At the end of 10 minutes, the samples were rinsed twice with deionized water. Fluorescent microscopy analysis was performed with fluorescein isothiocyanate-labeled ADP (fADP).
Solutions of 9.6 mM CaCl2 and 5.6 mM (PO4)^−3, a mixture of NaH2PO4—H2O and Na2HPO4-7H20, were prepared in 24 mM Tris-HCl buffer, pH 7.4. The peptide coated and non-coated control specimens were placed in 300 μl of Ca^+2 solution and an equal volume of (PO4)^−3 solution was added to achieve a final concentration of 4.8 mM of Ca^+2 and 2.8 mM of (PO4)^−3. The specimens were incubated in the mineralization solution for 2 hours at 37° C. in a water saturated atmosphere, removed from the mineralization solution and rinsed with 24 mM Tris-HCl buffer, pH 7.4. […]

In the case of LPPLFSMPLSPILPELPLEAWPAT [ADP6], the mineral morphology [1] is reported as “spherulitic particles”, the Kd (Binding analysis via QCM) is reported as 6250 nM and the “binding affinity to HAp (in words)” value (Binding analysis via QCM) is reported as “lower”.

With HTLQPHHHLPVV [ADP1] the mineral morphology [1] was “spherulitic particles”, the “crystal phase of the mineral formed (XRD)” value (“crystal phase” below) [1] was “none of the other strong binders” and the “amount of radiating crystalline blade-like particles emanating from the spherulites” value (from here on “amount”) [1] was “slightly higher”. For the same molecule, the Kd (Binding analysis via QCM) was 1400 nM.

With PAQQPVAPQQPMMP [ADP8] the mineral morphology [1] was “spherulitic particles”, the Kd (Binding analysis via QCM) was 3140 nM and the “binding affinity to HAp (in words)” value (Binding analysis via QCM) was “lower”.

For WPATDKTKREEVD [ADP3], the mineral morphology [1] was “spherulitic particles”, the Kd (Binding analysis via QCM) was 6400 nM and the “binding affinity to HAp (in words)” value (Binding analysis via QCM) was “lower”.

With “HPPSHTLQPHHHLPVVPAQQPVAPQQPMMPVPGHHSMTPTQH [ADP7]” the mineral morphology [1] was “Needle like nano-crystals”, the “crystal phase” value [1] was “crystalline HAp; also recorded: HA precipitation was only observed in ADP7; also recorded: characteristic peaks belonging to the HAp crystal structure” and the Kd (Binding analysis via QCM) was 1150 nM. The “mineralization trend (kinetics)” value [2] was “slow mineralization trend”.

For PGYINLSYEKSHSQAINTDRTA [ADP5], the mineral morphology [1] was “much smaller spherulites”, the Kd (Binding analysis via QCM) was 50000 nM and the “binding affinity to HAp (in words)” value (Binding analysis via QCM) was “lower”. For the same molecule, the Ca/P ratio ([3]; EDX spectra of the cementomimetic layer) was 1.67, the “thickness of mineral layer” value ([3]; SEM and TEM cross-section) was 10-15 μm and the “elemental composition by EDS” value ([3]; peptide coated samples after 2 hours) was “substantial Ca and P peaks”. The “mineralization trend (kinetics)” value [2] was “fast mineralization trend” and the “available free Ca2+ consumed” value [2] was “more than half”.

In the case of HPPSHTLQPHHHLPVV [ADP4], the mineral morphology [1] is reported as “spherulitic particles”, the “crystal phase” value [1] is reported as “none of the other strong binders” and the “amount” value [1] is reported as “slightly higher”. The Kd (Binding analysis via QCM) was 1430 nM.

With VPGHHSMTPTQH [ADP2] the mineral morphology [1] was “spherulitic particles”, the “crystal phase” value [1] was “none of the other strong binders” and the “amount” value [1] was “slightly higher”. It also gave a Kd (Binding analysis via QCM) of 1610 nM.

B1: rM180: recombinant mouse 180 amino acid long amelogenin (protein, UniProt P63277 17-210, looked up)
Amelogenin, X isoform: MPLPPHPGSPGYINLSYEKSHSQAINTDRTALVLTPLKWYQSMIRQPYPSYGYEPMGGWLHHQIIPVLSQQHPPSHTLQPHHHLPVVPAQQPVAPQQPMMPVPGHHSMTPTQHHQPNIPPSAQQPFQQPFQPQAIPPQSHQPMQPQSPLHPMQPLAPQPPLPPLFSMQPLSPILPELPLEAWPATDKTKREEVD
With B1 the mineral morphology [1] was “Needle like nano-crystals”, the “crystal phase” value [1] was “crystalline HAp” and the “crystal phase” value ([1]; listed as amelogenin) was “characteristic peaks belonging to the HAp crystal structure”. For the same molecule, the “mineralization trend (kinetics)” value [2] was “fast mineralization trend” and the “available free Ca2+ consumed” value [2] was “more than half”.
